Values after ≈ are worked out from the molar mass of the structure shown.
Assays:
Influenza B virus [1] = test: Antiviral activity against Influenza virus (B/Shanghai/361/2002) infected in MDCK cells; type: functional, organism-based; settings: B/Shanghai/361/2002, MDCK
[2] = system: Influenza A virus (A/Puerto Rico/8/1934(H1N1)); test: Antiviral activity against human influenza virus (A/New Caledonia/20/1999 (H1N1)) infected in MDCK cells; type: functional, organism-based, Influenza A virus (A/New Caledonia/20/1999(H1N1))
Influenza B virus [3] = test: Antiviral activity against Influenza virus (B/Shanghai/361/2002) infected in MDCK cells assessed as sialic acid concentration; type: functional, organism-based; settings: B/Shanghai/361/2002, MDCK
Influenza A virus H3N2 [4] = test: Antiviral activity against Influenza virus (A/Panama/2007/99 (H3N2)) infected in MDCK cells; type: functional, organism-based, Influenza A virus (A/Panama/2007/1999(H3N2))
Influenza A virus H3N2 [5] = test: Antiviral activity against Influenza virus (A/Panama/2007/99 (H3N2)) infected in MDCK cells assessed as sialic acid concentration; type: functional, organism-based, Influenza A virus (A/Panama/2007/1999(H3N2))
[6] = system: Influenza A virus (A/Puerto Rico/8/1934(H1N1)); test: Antiviral activity against human influenza virus (A/New Caledonia/20/1999 (H1N1)) infected in MDCK cells assessed as sialic acid concentration; type: functional, organism-based, Influenza A virus (A/New Caledonia/20/1999(H1N1))

`CC(=O)N[C@H]1[C@H]([C@H](O)[C@H](O)CO)O[C@](OC[C@H]2O[C@@H](O[C@@H]([C@H](O)[C@H](C=O)NC(C)=O)[C@H](O)CO)[C@H](O)[C@@H](O)[C@H]2O)(C(=O)O)C[C@@H]1O` showed an IC50 (Influenza B virus [1]) of 10000 µg/mL (≈ 14.8 mM), an IC50 [2] of 2000 µg/mL (≈ 2.96 mM) and an IC50 (Influenza B virus [3]) of 14.8 mM. It also gave an IC50 (Influenza A virus H3N2 [4]) of 3000 µg/mL (≈ 4.45 mM), an IC50 (Influenza A virus H3N2 [5]) of 4 mM and an IC50 [6] of 3 mM.
